Data reported in article PMC10590383, “Repurposing conformational changes in ANL superfamily enzymes to rapidly generate biosensors for organic and amino acids” (Nature Communications, 2023).

Experiments:
[1] = Substrate (ligand) specificity of […]s; type: biochemical; settings: Supplementary Fig. 3 c; substrate specificity
Procedure: (§1) Fig. 4 Engineering ligand specificity of GrsA-PheA for generating […]s. a The selectivity-conferring code of Phe and Leu A domains. b–f Dose–response curve of purified […]s with increasing concentrations of ligands in 100 mM Tris-HCl buffer (pH=7.5). All data shown are means ± S.D. (n = 3 biologically independent samples). g A series of […] reactions was tested to show the […]’s specificity with 20 proteinogenic amino acids. The values on the heatmap represent the ΔF/F0 value normalized to each […]’s maximal ΔF/F0 value ((ΔF/F0)/maximal ΔF/F0). The concentrations of 20 amino acids were 100 μM. The color indicates the average value of three independent biological replicates after 15 min. All data shown are means ± S.D. (n = 3 biologically independent samples). Source data are provided as a Source data file.
Ligand specificity is an important biosensors feature. Generally, the NRPS A domains have high specificity for their substrates because they are the first “gatekeeper” of NRPSs and ensure that the correct monomers are activated and thioesterified[32],[33]. Therefore, we speculated that this property would be inherited by our […]s because the ligand-binding pockets were unchanged during the […] creation process. Twenty proteinogenic amino acids were used to test the ligand specificity of […]s. […] We also investigated the dependence of […]s on Mg^2+ and ATP (Supplementary Fig. 4). […] This phenomenon corroborates with the distinct conformational changes observed in Hinge A of Nt4CL2 (Mg^2++ATP) (PDB ID: 5BSM) and Nt4CL2 (Coumaroyl-AMP) (PDB ID: 5BST) reported in the literature (Supplementary Fig. 4k), where the direction of motion in hinge A differs. […] During the determination of quantum yield, we observed that the absolute quantum yield of the […] variants ranged from 0.3 to 0.6 upon addition of the respective substrates, which show no significant difference with that reported in literature. The specific values are provided in Supplementary Table 2.
(§2) The study conducted dose–response curve, substrate specificity, and fluorescent spectrum analyses in 100-mM Tris buffer (pH = 7.5), while pH stability experiments were performed in 100-mM Tris buffer at three different pH values (6.5, 7.5, and 8.5) at room temperature. […] protein at a concentration of 0.75 μM, various small molecule concentrations, 1 mM ATP, and 2.5 mM MgCl2 were used in the experiments. Fluorescent signals were detected using a Microplate Reader (Synergy H4, Bio Tek) at an excitation/emission wavelength of 460 nm/510 nm or 480 nm/510 nm. The dose-response curve was determined immediately after the addition of the analyte. The total duration of the measurement was 15 min, with readings taken at one-minute intervals. The dose-response curve was plotted using the fluorescence values obtained after achieving stability in the fluorescence signal. The dose-response curves were fitted using the logistic model LOGISTIC5 available in Origin 2021, which could provide a more adequate fit to asymmetric dose-response data[62],[63]. Excitation spectra were scanned from 300 to 540 nm with a step size of 5 nm, and the emission wavelength was set to 560 nm. Emission spectra were scanned from 470 to 700 nm with a step size of 5 nm, and the excitation wavelength was set to 450 nm. The thermal stability of […] was analyzed using the UNcle multifunctional protein stability analysis system. Measurements were performed in 20 mM MOPS buffer with 2 mM DTT at a sample concentration of 1 mg/mL. Absolute fluorescence quantum yields were measured using an absolute photoluminescence quantum yield spectrometer (FS5, Edinburgh).

[2] = Dose–response curve of purified […] with R-β-phenylalanine; type: biochemical
Procedure: as §1, §2

GECFINDER-SβF = assay: Fluorescence dose-response of purified binding-pocket-engineered sensors (0.75 uM) in 100 mM Tris-HCl pH 7.5, room temperature, 1 mM ATP, 2.5 mM MgCl2, excitation 460 or 480 nm, emission 510 nm; logistic five-parameter fit.; type: biochemical; settings: n = 3
Procedure: as §1, §2

GECFINDER-Phe3 = biological target: T1, GECFINDER-Phe3 (Aneurinibacillus migulanus, UniProt P0C061); assay: Fluorescence dose-response of purified cpEGFP sensors (0.75 uM) in 100 mM Tris-HCl pH 7.5, room temperature, 1 mM ATP, 2.5 mM MgCl2; excitation 400, 460 or 480 nm by sensor, emission 510 nm; logistic five-parameter fit.; type: biochemical; settings: n = 3
T1 construct: gene grsA; GrsA-PheA-PCP; cpEGFP inserted in hinge B, linkers VF-QS
T1 sequence (P0C061 1-617): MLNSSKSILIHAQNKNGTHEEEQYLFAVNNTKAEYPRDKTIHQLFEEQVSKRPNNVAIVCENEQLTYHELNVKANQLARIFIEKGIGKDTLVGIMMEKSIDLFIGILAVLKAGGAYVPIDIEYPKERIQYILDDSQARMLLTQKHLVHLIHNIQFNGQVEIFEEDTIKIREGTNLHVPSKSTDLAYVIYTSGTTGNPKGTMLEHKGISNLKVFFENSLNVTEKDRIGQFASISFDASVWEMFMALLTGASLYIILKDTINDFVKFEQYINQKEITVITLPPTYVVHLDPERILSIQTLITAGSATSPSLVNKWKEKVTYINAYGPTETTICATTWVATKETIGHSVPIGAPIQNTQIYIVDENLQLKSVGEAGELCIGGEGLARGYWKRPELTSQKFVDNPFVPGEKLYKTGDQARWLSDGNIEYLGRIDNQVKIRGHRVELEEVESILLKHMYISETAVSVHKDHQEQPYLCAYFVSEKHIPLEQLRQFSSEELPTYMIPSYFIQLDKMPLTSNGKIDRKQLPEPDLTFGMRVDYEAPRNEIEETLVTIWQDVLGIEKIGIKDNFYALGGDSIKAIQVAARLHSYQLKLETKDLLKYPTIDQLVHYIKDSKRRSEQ
Procedure: (§3) Fig. 3 Dose–response curves and fluorescence spectrums of […]s. a, c, e, g, i, k Dose–response curve of purified […]s with increasing concentrations of ligand in 100 mM Tris-HCl buffer (pH=7.5). The normalized ΔF/F0 value increased after ligand binding. All data shown are mean ± S.D. (n = 3 biologically independent samples). b, d, f, h, j, l The fluorescence spectra of […]s changed as the ligand concentration increased. All data shown are mean ± S.D. (n = 3 biologically independent samples). Source data are provided as a Source data file.
as §2

[3] = Fluorescence spectra / excitation wavelength scan of […]s; type: physicochemical; settings: Wavelength 300 nm
Procedure: Fig. 3 Dose–response curves and fluorescence spectrums of […]s. a, c, e, g, i, k Dose–response curve of purified […]s with increasing concentrations of ligand in 100 mM Tris-HCl buffer (pH=7.5). […] All data shown are mean ± S.D. (n = 3 biologically independent samples). Source data are provided as a Source data file.
as §2

[4] = Dose–response curve of purified […] with glutamic acid; type: biochemical; parameters: key: normalized ΔF/F0 (fluorescence change relative to baseline F0)
Procedure: as §3, §2

For `N[C@H](CC(=O)O)c1ccccc1` [R-β-Phe], the “fluorescence response of GECFINDER to each substrate, AVE of 3 repeats” value [1] was 0.4936, the “AVE, dose-response Fig. 4 f” value ([2]; substrate R-β-Phe 0.0001 μM) was -0.0001175 and the “AVE, dose-response Fig. 4 f” value ([2]; substrate R-β-Phe 0.001 μM) was -0.003533. The “AVE, dose-response Fig. 4 f” value ([2]; substrate R-β-Phe 0.01 μM) was -3.814e-5, the “AVE, dose-response Fig. 4 f” value ([2]; substrate R-β-Phe 0.1 μM) was 0.008066 and the “AVE, dose-response Fig. 4 f” value ([2]; substrate R-β-Phe 1 μM) was 0.06811. For the same compound, the “AVE, dose-response Fig. 4 f” value ([2]; substrate R-β-Phe 5 μM) was 0.06226, the “AVE, dose-response Fig. 4 f” value ([2]; substrate R-β-Phe 10 μM) was 0.1204 and the “AVE, dose-response Fig. 4 f” value ([2]; substrate R-β-Phe 50 μM) was 0.3026. The “AVE, dose-response Fig. 4 f” value ([2]; substrate R-β-Phe 100 μM) was 0.3923, the “AVE, dose-response Fig. 4 f” value ([2]; substrate R-β-Phe 500 μM) was 0.5534 and the “AVE, dose-response Fig. 4 f” value ([2]; substrate R-β-Phe 1000 μM) was 0.5949. For the same compound, the “AVE, dose-response Fig. 4 f” value ([2]; substrate R-β-Phe 2000 μM) was 0.5892.
For `N[C@H](CC(=O)O)c1ccccc1` [R-β-Phe, R-β-phenylalanine], the EC50 (GECFINDER-SβF) was 54.6 ± 7.66 µM.
`N[C@@H](CC(=O)O)c1ccccc1` [S-β-Phe, S-β-phenylalanine] showed an EC50 (GECFINDER-Phe3) of 13.6 ± 1.28 µM and an EC50 (GECFINDER-SβF) of 7.4 ± 0.45 µM.
With `N[C@@H](CCC(=O)O)C(=O)O` [Glu] the “Wavelength scan, AVE of Repeat 1-3 (Fig. 3 f)” value (shortened to “Wavelength scan, AVE”) ([3]; 0.1 μM Glu) was 86.3333, the “Wavelength scan, AVE” value ([3]; 5 μM Glu) was 106 and the “Wavelength scan, AVE” value ([3]; 500 μM Glu) was 120.667. The “fluorescence response of GECFINDER to each substrate, AVE of 3 repeats” value [1] was -0.007518, the “Dose-response, AVE of Repeat 1-3 (Fig. 3 e)” value (“Dose-response, AVE” below) ([4]; Glu 0.1 μM) was 0 and the “Dose-response, AVE” value ([4]; Glu 1 μM) was 0.02632. The “Dose-response, AVE” value ([4]; Glu 2 μM) was 0.0378, the “Dose-response, AVE” value ([4]; Glu 5 μM) was 0.1147 and the “Dose-response, AVE” value ([4]; Glu 10 μM) was 0.1961. For the same compound, the “Dose-response, AVE” value ([4]; Glu 20 μM) was 0.322, the “Dose-response, AVE” value ([4]; Glu 50 μM) was 0.5379 and the “Dose-response, AVE” value ([4]; Glu 100 μM) was 0.6984. For the same compound, the “Dose-response, AVE” value ([4]; Glu 200 μM) was 0.8758, the “Dose-response, AVE” value ([4]; Glu 500 μM) was 1.002 and the “Dose-response, AVE” value ([4]; Glu 750 μM) was 0.9874. For the same compound, the “Dose-response, AVE” value ([4]; Glu 1000 μM) was 0.9487.
